Test results: patent US8163909B2, “Substituted hydroxyethyl amine compounds as beta-secretase modulators and methods of use” (Amgen Inc., priority 2007, dated 2012)

Experiments:
[1] = Microsomal stability assay, rat liver microsomes; conditions: rat liver microsomes;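 also: rat liver microsomes (0.25 mg/mL) with about 1 µM compound plus 1 mM NADPH, pH 7.4, 37 °C for 30 min, parent left measured by LC-MS/MS against 0 min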
[2] = molecular target: Beta Secretase enzyme (BACE) (Homo sapiens, UniProt P56817); experiment: In vitro enzymatic BACE FRET (fluorescence resonance energy transfer) assay; type: biochemical; conditions: BACE enzyme assay IC50; read-out: BACE1 FRET assay;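 also: fluorescence read after 1 h with 50 nM quenched peptide substrate spanning the BACE cleavage site, in pH 4.2 acetate buffer containing 10% DMSO and nonionic detergent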
CYP2D6 = CYP2D6 (Homo sapiens, UniProt P10635); experiment: CYP2D6 inhibition assay (bufuralol, pooled human liver microsomes); conditions: 2D6 IC50 (uM), CYP2D6 inhibition
[3] = tested on: Aβ40 in conditioned medium of cells stably expressing Amyloid Precursor Protein (APP); experiment: In vitro BACE cell-based assay (Aβ40 in conditioned medium, sandwich ELISA); conditions: Homo sapiens, HEK293, HEK cell-based assay IC50; read-out: HEK cell assay;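 also: compounds added as a dilution series, secreted peptide quantified by europium time-resolved fluorescence readout, potency fitted from percent of control versus compound concentration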
[4] = Microsomal stability assay, human liver microsomes; conditions: human liver microsomes;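 also: pooled human liver microsomes at 0.25 mg/mL with 1 µM compound and NADPH at 37 °C, pH 7.4, for 30 min, unchanged parent quantified by LC-MS/MS against the 0 min sample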
CYP3A4 (CYP3A) = CYP3A4 (CYP3A) (Homo sapiens, UniProt P08684); experiment: in vitro; conditions: microsomes, pH 7.4;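 also: inhibition of CYP3A-mediated 1-hydroxymidazolam formation after 10 min incubation with NADPH, quantified by HPLC MS relative to metabolite produced without test compound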
CYP3A4 (CYP3A), sequence (P08684 2-503): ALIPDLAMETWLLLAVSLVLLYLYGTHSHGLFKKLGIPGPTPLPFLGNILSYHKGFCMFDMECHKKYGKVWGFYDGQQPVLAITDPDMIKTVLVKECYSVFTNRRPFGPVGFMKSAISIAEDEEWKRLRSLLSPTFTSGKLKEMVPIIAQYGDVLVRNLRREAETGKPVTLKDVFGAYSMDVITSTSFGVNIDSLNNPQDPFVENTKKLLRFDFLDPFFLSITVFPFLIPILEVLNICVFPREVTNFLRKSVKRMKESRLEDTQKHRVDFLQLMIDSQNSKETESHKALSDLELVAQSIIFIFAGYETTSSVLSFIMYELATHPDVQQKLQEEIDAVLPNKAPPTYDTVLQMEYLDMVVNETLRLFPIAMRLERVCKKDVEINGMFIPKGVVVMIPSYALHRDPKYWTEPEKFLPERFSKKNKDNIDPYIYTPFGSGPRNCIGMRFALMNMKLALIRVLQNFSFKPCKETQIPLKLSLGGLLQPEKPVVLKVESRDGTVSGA

Beta Secretase enzyme (BACE), sequence (P56817 46-501): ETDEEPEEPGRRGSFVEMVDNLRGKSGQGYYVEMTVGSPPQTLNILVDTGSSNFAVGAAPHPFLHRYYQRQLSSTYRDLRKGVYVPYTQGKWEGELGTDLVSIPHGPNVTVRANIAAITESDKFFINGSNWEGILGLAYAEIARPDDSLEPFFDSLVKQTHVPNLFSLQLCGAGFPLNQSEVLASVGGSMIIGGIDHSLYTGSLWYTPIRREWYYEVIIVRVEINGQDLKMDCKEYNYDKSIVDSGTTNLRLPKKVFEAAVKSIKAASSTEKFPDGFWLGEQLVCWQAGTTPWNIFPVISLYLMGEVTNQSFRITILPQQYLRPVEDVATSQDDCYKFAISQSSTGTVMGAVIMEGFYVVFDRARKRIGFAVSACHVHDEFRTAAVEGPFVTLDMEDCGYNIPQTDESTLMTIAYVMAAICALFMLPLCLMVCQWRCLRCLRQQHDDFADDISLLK
CYP2D6, sequence (P10635 whole entry): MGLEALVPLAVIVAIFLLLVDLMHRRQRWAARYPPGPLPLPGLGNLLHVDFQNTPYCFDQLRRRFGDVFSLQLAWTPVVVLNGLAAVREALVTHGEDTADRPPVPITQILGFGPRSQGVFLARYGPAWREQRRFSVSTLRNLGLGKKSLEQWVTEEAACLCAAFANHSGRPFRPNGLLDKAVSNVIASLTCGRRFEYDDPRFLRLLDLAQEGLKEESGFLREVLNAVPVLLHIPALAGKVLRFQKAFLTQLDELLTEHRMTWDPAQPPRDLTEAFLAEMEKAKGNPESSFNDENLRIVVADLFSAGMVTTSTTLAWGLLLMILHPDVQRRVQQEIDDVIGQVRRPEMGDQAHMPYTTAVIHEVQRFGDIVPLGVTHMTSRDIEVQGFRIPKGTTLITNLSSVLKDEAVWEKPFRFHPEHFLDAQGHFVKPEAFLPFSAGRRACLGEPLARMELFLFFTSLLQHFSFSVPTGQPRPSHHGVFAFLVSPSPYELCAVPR

Structure (SMILES)	RLM [1]	IC50 [2]	IC50 (CYP2D6)	IC50 [3]	HLM [4]	IC50 (CYP3A4 (CYP3A))
C#Cc1cc(F)cc(C[C@H](NC(C)=O)[C@H](O)CN[C@H]2CC3(CCC3)Oc3ncc(CC(C)(C)C)cc32)c1 [compound 713, N-((1S,2R)-3-(((4′S)-6′-(2,2-dimethylpropyl)-3′,4′-dihydrospiro[cyclobutane-1,2′-pyrano[2,3-b]pyridin]-4′-yl)amino)-1-(3-ethynyl-5-fluorobenzyl)-2-hydroxypropyl)acetamide]	58 µL/min/mg	3 nM	1.2 µM	15 nM	75 µL/min/mg	100 nM
COCC(=O)N[C@@H](Cc1cc(F)cc(F)c1)[C@H](O)CN[C@H]1CC2(CCC2)Oc2c1cc(CC(C)C)nc2-c1nccn1C [compound 714]	43 µL/min/mg	16 nM	2.2 µM	17 nM	20 µL/min/mg	≤ 30 nM
COCC(=O)N[C@@H](Cc1cc(F)cc(F)c1)[C@H](O)CN[C@H]1CC2(CCC2)Oc2c1cc(CC(C)C)nc2-c1cncn1C [compound 715]	34 µL/min/mg	20 nM	1.8 µM	16 nM	19 µL/min/mg	≤ 30 nM
CNc1nc(CC(C)(C)C)cc2c1OC1(CCC1)C[C@@H]2NC[C@@H](O)[C@H](Cc1ccc(F)c(-c2nccs2)c1)NC(=O)COC [compound 716, N-((1S,2R)-3-(((4′S)-6′-(2,2-dimethylpropyl)-8′-(methylamino)-3′,4′-dihydrospiro[cyclobutane-1,2′-pyrano[2,3-c]pyridin]-4′-yl)amino)-1-(4-fluoro-3-(1,3-thiazol-2-yl)benzyl)-2-hydroxypropyl)-2-methoxyacetamide]	190 µL/min/mg	32 nM	1.5 µM	25 nM	123 µL/min/mg	400 nM
CC(C)(C)Cc1cnc2c(c1)[C@@H](NC[C@@H](O)[C@H](Cc1ccc(F)cc1)NC(=O)[C@H]1CN(Cc3ccccc3)CCO1)CC1(CCC1)O2 [compound 717]	298 µL/min/mg	13 nM	3.6 µM	11 nM	775 µL/min/mg	200 nM
COCC(=O)N[C@@H](Cc1cc(F)cc(-c2nccs2)c1)[C@H](O)CN[C@H]1CC2(CCC2)Oc2cnc(CC(C)(C)F)cc21 [compound 718, N-((1S,2R)-3-(((4′S)-6′-(2-fluoro-2-methylpropyl)-3′,4′-dihydrospiro[cyclobutane-1,2′-pyrano[2,3-c]pyridin]-4′-yl)amino)-1-(3-fluoro-5-(1,3-thiazol-2-yl)benzyl)-2-hydroxypropyl)-2-methoxyacetamide]	140 µL/min/mg	51 nM	0.5 µM	62 nM	113 µL/min/mg	300 nM
CO[C@H](C)C(=O)N[C@@H](Cc1cc(F)cc(Cl)c1)[C@H](O)CN[C@H]1CC2(CCC2)Oc2cnc(CC(C)(C)F)cc21 [compound 719]	775 µL/min/mg	24 nM	2.4 µM	130 nM	515 µL/min/mg	400 nM
CO[C@H](C)C(=O)N[C@@H](Cc1cc(F)cc(-c2nccs2)c1)[C@H](O)CN[C@H]1CC2(CCC2)Oc2cnc(CC(C)(C)F)cc21 [compound 721, (2R)-N-((1S,2R)-3-(((4′S)-6′-(2-fluoro-2-methylpropyl)-3′,4′-dihydrospiro[cyclobutane-1,2′-pyrano[2,3-c]pyridin]-4′-yl)amino)-1-(3-fluoro-5-(1,3-thiazol-2-yl)benzyl)-2-hydroxypropyl)-2-methoxypropanamide]	152 µL/min/mg	49 nM	0.5 µM	118 nM	111 µL/min/mg	300 nM
CCC(=O)N[C@@H](Cc1ccc2c(c1)OCO2)[C@H](O)CN[C@H]1CC2(CCC2)Oc2ncc(CC(C)C)cc21 [compound 726, N-((1S,2R)-1-(1,3-benzodioxol-5-ylmethyl)-2-hydroxy-3-(((4′S)-6′-(2-methylpropyl)-3′,4′-dihydrospiro[cyclobutane-1,2′-pyrano[2,3-b]pyridin]-4′-yl)amino)propyl)propanamide]	173 µL/min/mg	44 nM	1.4 µM	48 nM	34 µL/min/mg	≤ 30 nM
COCC(=O)N[C@@H](Cc1ccc(F)c(-c2nccs2)c1)[C@H](O)CN[C@H]1CC2(CCC2)Oc2ncc(CC(C)C)cc21 [compound 727]	74 µL/min/mg	11 nM	0.5 µM	23 nM	45 µL/min/mg	≤ 30 nM
COCC(=O)N[C@@H](Cc1ccc(F)c(-c2ncc(C)s2)c1)[C@H](O)CN[C@H]1CC2(CCC2)Oc2ncc(CC(C)(C)C)cc21 [compound 729]	399 µL/min/mg	48 nM	3.9 µM	291 nM	371 µL/min/mg	400 nM
COCC(=O)N[C@@H](Cc1cc(F)cc(-c2ncc(C)s2)c1)[C@H](O)CN[C@H]1CC2(CCC2)Oc2ncc(CC(C)C)cc21 [compound 732]	399 µL/min/mg	18 nM	2.5 µM	83 nM	551 µL/min/mg	200 nM
COCC(=O)N[C@@H](Cc1cc(F)cc(-c2nc(C)cs2)c1)[C@H](O)CN[C@H]1CC2(CCC2)Oc2ncc(CC(C)C)cc21 [compound 733]	399 µL/min/mg	8 nM	4.5 µM	21 nM	249 µL/min/mg	≤ 30 nM
Cc1csc(CN2CCO[C@H](C(=O)N[C@@H](Cc3ccc(F)cc3)[C@H](O)CN[C@H]3CC4(CCC4)Oc4ncc(CC(C)(C)C)cc43)C2)n1 [compound 734]	335 µL/min/mg	12 nM	2.4 µM	14 nM	543 µL/min/mg	100 nM
CO[C@H](C)C(=O)N[C@@H](Cc1ccc(-c2nccs2)cc1)[C@H](O)CN[C@H]1CC2(CCC2)Oc2ncc(CC(C)(C)C)cc21 [compound 735]	80 µL/min/mg	49 nM	1 µM	60 nM	78 µL/min/mg	≤ 30 nM
CO[C@H](C)C(=O)N[C@@H](Cc1cc(F)cc(-c2nccs2)c1)[C@H](O)CN[C@H]1CC2(CCC2)Oc2ncc(CC(C)(C)C)cc21 [compound 738, (2R)-N-((1S,2R)-3-(((4′S)-6′-(2,2-dimethylpropyl)-3′,4′-dihydrospiro[cyclobutane-1,2′-pyrano[2,3-b]pyridin]-4′-yl)amino)-1-(3-fluoro-5-(1,3-thiazol-2-yl)benzyl)-2-hydroxypropyl)-2-methoxypropanamide]	59 µL/min/mg	8 nM	0.6 µM	10 nM	50 µL/min/mg	≤ 30 nM
CN1CCO[C@@H](C(=O)N[C@@H](Cc2ccc(F)cc2)[C@H](O)CN[C@H]2CC3(CCC3)Oc3ncc(CC(C)(C)C)cc32)C1 [compound 739]	239 µL/min/mg	64 nM	6.7 µM	8 nM	266 µL/min/mg	800 nM
CO[C@H](C)C(=O)N[C@@H](Cc1ccc2c(c1)OCO2)[C@H](O)CN[C@H]1CC2(CCC2)Oc2ncc(CC(C)(C)F)cc21 [compound 741]	76 µL/min/mg	352 nM	5 µM	329 nM	25 µL/min/mg	≤ 30 nM
CO[C@H](C)C(=O)N[C@@H](Cc1cc(F)cc(-c2nccs2)c1)[C@H](O)CN[C@H]1CC2(CCC2)Oc2ncc(CC(C)(C)F)cc21 [compound 742]	42 µL/min/mg	84 nM	0.95 µM	45 nM	39.5 µL/min/mg	700 nM
CN1CCO[C@H](C(=O)N[C@@H](Cc2ccc(F)cc2)[C@H](O)CN[C@H]2CC3(CCC3)Oc3ncc(CC(C)(C)C)cc32)C1 [compound 744]	266 µL/min/mg	372 nM	11.2 µM	75 nM	333 µL/min/mg	900 nM
COCC(=O)N[C@@H](Cc1ccc(F)cc1)[C@H](O)CN[C@H]1CC(C)(C)Oc2c1cc(Br)c1c2OCO1 [compound 745]	177 µL/min/mg	5730 nM	3.1 µM	229 nM	179 µL/min/mg	500 nM
COCC(=O)N[C@@H](Cc1cc(F)cc(F)c1)[C@H](O)CN[C@H]1CC(C)(C)Oc2c1cc(Br)c1c2OCO1 [compound 746]	144 µL/min/mg	275 nM	3.8 µM	185 nM	150 µL/min/mg	200 nM
COCC(=O)N[C@@H](Cc1cc(F)cc(F)c1)[C@H](O)CN[C@H]1CC(C)(C)Oc2c1cc(CC(C)C)c1c2OCO1 [compound 748]	179 µL/min/mg	13 nM	8.2 µM	126 nM	190 µL/min/mg	100 nM
COCC(=O)N[C@@H](Cc1cc(F)cc(-c2nccs2)c1)[C@H](O)CN[C@H]1CC2(CCC2)Oc2ncc(C3CC3)cc21 [compound 749]	51 µL/min/mg	46 nM	1.6 µM	74 nM	59 µL/min/mg	300 nM
